Assay results from PMC11819603, “Development of a reliable, sensitive, and convenient assay for the discovery of new eIF5A hypusination inhibitors” (PLOS ONE, 2025).

What was measured:
[1] = test system: DHPS; conditions: ref 35; read-out: IC50; cited from earlier work
[2] = molecular target: T1, DHPS (Homo sapiens, UniProt P49366); assay: Hyp'Assay: cell-free eIF5A hypusination in 96-well plates (recombinant eIF5A, DHPS, DOHH; anti-hypusine antibody Hpu24), substance present in the DHPS step; type: biochemical; conditions: 5 μM spermidine; for hypusination signal, Mean (quantification from Figure 5A): control 98,5
T1 construct: host or cells: E. coli BL21 (DE3)
T1 sequence (P49366 1-369): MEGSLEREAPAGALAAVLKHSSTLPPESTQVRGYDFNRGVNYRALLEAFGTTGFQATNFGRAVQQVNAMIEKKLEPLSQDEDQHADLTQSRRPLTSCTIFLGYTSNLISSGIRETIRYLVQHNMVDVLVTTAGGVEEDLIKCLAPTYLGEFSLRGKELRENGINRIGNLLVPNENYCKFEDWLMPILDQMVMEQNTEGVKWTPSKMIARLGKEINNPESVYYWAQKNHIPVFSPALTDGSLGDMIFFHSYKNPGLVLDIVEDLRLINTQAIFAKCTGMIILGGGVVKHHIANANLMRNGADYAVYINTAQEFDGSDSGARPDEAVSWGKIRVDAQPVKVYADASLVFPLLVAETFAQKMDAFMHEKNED
Procedure: The principle of the Hyp’Assay (Fig 2A) is to perform eIF5A hypusination reaction in 96-well plates, allow eIF5A to adsorb to the plate, incubate with an anti-hypusine antibody and a secondary antibody conjugated to HRP and reveal hypusination using TMB as a substrate.
[…] Then 10 μL containing 1 μg of DOHH with 10 μM Fe^2+ (H8FeN2O8S2^. 6H2O) were added. After 1 h proteins were analyzed by Western Blot using antibodies toward DHPS, DOHH, Hypusine, and eIF5A.
The cell-free reaction described in 4.4 is performed in triplicates in a 96-wells plate (MaxiSorp, ThermoFisher) in the presence of 3 μg of eIF5A, 2 μg of DHPS, and 2 μg of DOHH by well. The reaction product, hypusinated eIF5A, is adsorbed onto the plate overnight at 4°C. The plate is washed (100 μL/well) thrice with PBS-T (PBS– 0.05% Tween20), then saturated with 1% non-fat dry milk in PBS-T for 2 h at room temperature. The plate is washed thrice with PBS-T and incubated overnight at 4°C with the anti-hypusine antibody (1:2000 in saturation buffer, 50 μL/well). The next day and after 5 washes with PBS-T, HRP-coupled anti-rabbit secondary antibody diluted 1:5000 in saturation buffer (50 μL/well) is added for 2 h at room temperature.

[3] = test system: eIF5A hypusination in MCF7 cells; assay: eIF5A hypusination in intact MCF7 cells, Western blot; type: cell-based, human; conditions: 40 μM, 24 h, Ctrl 100, 4 experiments
Procedure: We tested the ability of the GC7 analogs to inhibit hypusination in intact cells. MCF-7 cells (Fig 5B), a classical model of breast cancer cell line, and HT29 cells (Fig 5C), a cell model of colorectal cancer, were treated with 40 μM of GC7, 1, 2, 3, and 4 for 24h. Cells were lysed and analyzed by Western blot. As observed, none of the molecules modified eIF5A expression. […] GC7 analogs inhibited hypusination from 35 to 55%.
The human breast cancer cell line MCF7 (HTB-22 ATCC) and colorectal adenocarcinoma HT29 (HTB-38 ATCC) were cultured in DMEM (Gibco) supplemented with 10% FBS (Dutscher), 10 U/mL penicillin, and […] streptomycin. 1 mM of aminoguanidine was added to the medium to inhibit the degradation of GC7 and polyamines by amine oxidase from the serum and the production of reactive oxygen species. Cells were maintained at 37°C, 5% CO2 in a humid atmosphere.
After treatment, cells were washed with ice-cold PBS and lysed in RIPA Buffer (50 mM Tris pH 7.5, 150 mM NaCl, 0.1% SDS, 0.5% Na Deoxycholate, 5 mM NaF, 2.5 mM Na4P2O7, 1% NP4O) containing a protease inhibitor cocktail (complete Roche). 10 μg of proteins were separated by SDS PAGE and transferred to a PVDF membrane (Immobilon-P Millipore). The membranes were probed with the appropriate primary antibody that was detected by horseradish peroxidase-conjugated secondary antibody (Jackson Immunoresearch) and visualized by chemiluminescence (ECL Amersham RPN 3244) using a Fuji LAS-4000 imager. ImageJ® software was used to quantify band intensity and the ratios of proteins of interest were normalized to a loading control. Full-length Western blots are provided in the supplementary data (S19, S20 Figs).

[4] = concentration 1 (no unit on page; Fig 5A 0 to 1 mM)
[5] = concentration 10 (no unit on page; Fig 5A 0 to 1 mM)
[6] = concentration 100 (no unit on page; Fig 5A 0 to 1 mM)
[7] = concentration 1000 (no unit on page; Fig 5A 0 to 1 mM)

In the case of `COc1ccccc1Oc1c(Cl)nc(-c2ccc(I)cc2)nc1Cl` [GL-1, 4,6-dichloro-2-(4-iodophenyl)-5-(2-methoxyphenoxy)pyrimidine], the IC50 [1] is listed as 210 nM.
In the case of `N=C(N)NCCCCCCCO` [compound 3, 7-hydroxyheptylguanidine], the “concentration from which inhibition of hypusination was detectable” value [2] is reported as 1 µM, the “hypusination signal, Mean (quantification from Figure 5A)” value (from here on “hypusination signal, Mean”) [2, 4] is reported as 75,7 and the “hypusination signal, Mean” value [2, 5] is reported as 65,6. The “hypusination signal, Mean” value [2, 6] was 63,6, the “hypusination signal, Mean” value [2, 7] was 58,2 and the “hypusinated eIF5A, Western blot quantification, Mean (Figure 5B)” value [3] was 50.5.
With `N=C(N)NCCCCCCCCO` [compound 4, 8-hydroxyoctylguanidine] the “concentration from which inhibition of hypusination was detectable” value [2] was 100 µM, the “hypusination signal, Mean” value [2, 4] was 109,4 and the “hypusination signal, Mean” value [2, 5] was 86,9. The “hypusination signal, Mean” value [2, 6] was 67,2, the “hypusination signal, Mean” value [2, 7] was 64,0 and the “hypusinated eIF5A, Western blot quantification, Mean (Figure 5B)” value [3] was 64.75.
